# Assay results as given in ChEMBL document CHEMBL3797183, “Rigid amphipathic nucleosides suppress reproduction of the tick-borne encephalitis virus” (Medchemcomm, 2016).
# Tests used:
# [1] = Cytotoxicity against PEK cells after 24 hrs; format: cell-based, Sus scrofa; details: pig
# [2] = Cytotoxicity against PEK cells after 7 days; format: cell-based, Sus scrofa; details: pig
# [3] = tested on: Tick-borne encephalitis virus; test: Antiviral activity against Tick-borne encephalitis virus Absettarov infected in PEK cells assessed as reduction in viral plaque formation incubated for 1 hr measured after 6 days by gentian violet staining; format: functional, cell-based
# [4] = tested on: Tick-borne encephalitis virus; test: Antiviral activity against Tick-borne encephalitis virus Absettarov infected in PEK cells assessed as reduction in viral plaque formation compounds preincubated with cells for 1 hr followed by addition of virus with subsequent incubation of 1 hr by gentian violet staining; format: functional, cell-based
# [5] = tested on: Tick-borne encephalitis virus; test: Antiviral activity against 2 PFU Tick-borne encephalitis virus Absettarov infected in PEK cells assessed as inhibition of viral titer at 200 EC50 for simultaneous addition of compound/cells/virus incubated for 1 hr measured after 6 days by gentian violet staining; format: functional
# [6] = tested on: Tick-borne encephalitis virus; test: Antiviral activity against 22 PFU Tick-borne encephalitis virus Absettarov infected in PEK cells assessed as inhibition of viral titer at 200 EC50 for simultaneous addition of compound/cells/virus incubated for 1 hr measured after 6 days by gentian violet staining; format: functional
# [7] = tested on: Tick-borne encephalitis virus; test: Antiviral activity against 2.2x10^2 PFU Tick-borne encephalitis virus Absettarov infected in PEK cells assessed as inhibition of viral titer at 200 EC50 for simultaneous addition of compound/cells/virus incubated for 1 hr measured after 6 days by gentian violet staining; format: functional
# [8] = tested on: Tick-borne encephalitis virus; test: Antiviral activity against 2.2x10^3 PFU Tick-borne encephalitis virus Absettarov infected in PEK cells assessed as inhibition of viral titer at 200 EC50 for simultaneous addition of compound/cells/virus incubated for 1 hr measured after 6 days by gentian violet staining; format: functional
# [9] = tested on: Tick-borne encephalitis virus; test: Antiviral activity against 2.2x10^4 PFU Tick-borne encephalitis virus Absettarov infected in PEK cells assessed as inhibition of viral titer at 200 EC50 for simultaneous addition of compound/cells/virus incubated for 1 hr measured after 6 days by gentian violet staining; format: functional
# [10] = tested on: Tick-borne encephalitis virus; test: Antiviral activity against 2.2x10^5 PFU Tick-borne encephalitis virus Absettarov infected in PEK cells assessed as inhibition of viral titer at 200 EC50 for simultaneous addition of compound/cells/virus incubated for 1 hr measured after 6 days by gentian violet staining; format: functional
# [11] = Cytotoxicity against PEK cells assessed as cytopathic effect at 50 uM after 7 days relative to control; format: cell-based, Sus scrofa; details: pig, 168 h
# [12] = tested on: Tick-borne encephalitis virus; test: Antiviral activity against Tick-borne encephalitis virus Absettarov infected in PEK cells assessed as reduction in viral plaque formation compounds preincubated with virus for 1 hr followed by addition of cells with subsequent incubation of 1 hr measured after 6 days by gentian violet staining; format: functional, cell-based
# [13] = tested on: Human alphaherpesvirus 1; test: Antiviral activity against HSV1 KOS infected in African green monkey Vero cells treated for 10 mins measured after 1 to 2 days by crystal violet staining-based assay; format: functional, organism-based; details: Human alphaherpesvirus 1, KOS
# [14] = tested on: Human alphaherpesvirus 2; test: Antiviral activity against HSV2 186 infected in African green monkey Vero cells treated for 10 mins measured after 1 to 2 days by crystal violet staining-based assay; format: functional, cell-based; details: Human alphaherpesvirus 2, strain 186, Vero
# [15] = tested on: Vesicular stomatitis virus; test: Antiviral activity against VSV infected in African green monkey Vero cells treated for 10 mins measured after 1 to 2 days by crystal violet staining-based assay; format: functional, organism-based
# [16] = tested on: Sindbis virus; test: Antiviral activity against Sindbis virus infected in African green monkey Vero cells treated for 10 mins measured after 1 to 2 days by crystal violet staining-based assay; format: functional, organism-based
# [17] = tested on: Hepatitis C virus; test: Antiviral activity against HCV JFH-1 infected in human Huh7.5 cells treated for 10 mins measured after 72 hrs by immunocytochemical assay; format: functional, organism-based, Hepacivirus hominis; details: JFH-1, Huh-7
# [18] = tested on: Influenza A virus; test: Antiviral activity against Influenza virus A/PR/8/34 (H1N1) infected in MDCK cells treated for 10 mins measured after 1 hr by neutral red or crystal violet staining-based assay; format: functional, organism-based; details: A/Puerto Rico/8/1934(H1N1)
# [19] = Antiviral activity against Influenza virus A/USSR/90/77 (H1N1) infected in MDCK cells treated for 10 mins measured after 1 hr by neutral red or crystal violet staining-based assay; format: functional, cell-based, Influenza A virus (A/USSR/90/1977(H1N1))
# [20] = Antiviral activity against Influenza virus A/Aichi/2/68 (H3N2) infected in MDCK cells treated for 10 mins measured after 1 hr by neutral red or crystal violet staining-based assay; format: functional, cell-based, Influenza A virus (A/Aichi/2/1968(H3N2))
# [21] = tested on: Influenza A virus; test: Antiviral activity against Influenza virus A/PC/1/73 (H3N2) infected in MDCK cells treated for 10 mins measured after 1 hr by neutral red or crystal violet staining-based assay; format: functional, organism-based
Structure (SMILES),CC50 at 24 h [1] [nM],CC50 at 168 h [2] [nM],EC50 [3] [nM],EC50 [4] [nM],inhibition (INH) [5] [%],inhibition (INH) [6] [%],inhibition (INH) [7] [%],inhibition (INH) [8] [%],inhibition (INH) [9] [%],inhibition (INH) [10] [%],Activity [11] [%],EC50 [12] [nM],IC50 [13] [nM],IC50 [14] [nM],IC50 [15] [nM],IC50 [16] [nM],IC50 [17] [nM],IC50 [18] [nM],IC50 [19] [nM],IC50 [20] [nM],further results
O=c1[nH]c(=O)n([C@H]2C[C@H](O)[C@@H](CO)O2)cc1C#CCOCc1ccc2c3cccc4cccc(c5cccc1c52)c43,> 50000,> 50000,500,> 50000,100,100,100,100,99.9988,99.9965,25,,,,,,,,,,
O=c1[nH]c(=O)n([C@H]2C[C@H](O)[C@@H](CO)O2)cc1C#Cc1ccc2ccc3cccc4ccc1c2c34,> 50000,> 50000,980,42000,,,,,,,,600,,,,,,,,,
O=c1[nH]c(=O)n([C@@H]2O[C@H](CO)[C@@H](O)[C@@H]2O)cc1C#Cc1ccc2c3cccc4cccc(c5cccc1c52)c43,> 50000,4400,18,2700,,,,,,,,40,2,2,2,2,2,2,2,2,IC50 [21]: 2 nM
O=c1[nH]c(=O)n([C@H]2C[C@H](O)[C@@H](CO)O2)cc1C#Cc1ccc2c3cccc4cccc(c5cccc1c52)c43,> 50000,> 50000,24,1560,100,100,100,100,99.9988,99.9995,25,40,2,2,2,2,2,2,2,2,IC50 [21]: 2 nM
